Legend:
golden Syrian hamsters [1] = experiment: Peptide-specific antibody ELISA of sera from immunized hamsters; format: in vivo; settings: listed in rank order
Description: Female golden Syrian hamsters (Charles River Laboratories, Wilmington, Mass.) are immunized with a 2-dose regimen with a 14-day interval between doses. Two weeks after the second dose, hamsters are euthanized. Hamster blood is collected by cardiac puncture and serum is prepared for the quantification of peptide-specific antibodies by an in-house indirect ELISA method. Spleens and draining lymph nodes serve as a source of cells for the IFN-γ ELISPOT and other assays. Unless otherwise noted, water-in-oil emulsions are administered subcutaneously, all other adjuvant formulations are administered intramuscularly.
A total of 52 peptides are tested for immunogenicity. Antibody responses in hamster sera specimens to individual peptides or peptide pools are quantified by ELISA.
Briefly, Immulon 4 HBX 96-well plates for ELISA are obtained from Thermo Fisher Scientific (Waltham, Mass.). The plate is coated with 1 μg/well of either a pool of peptides or individual peptides in coating buffer (50 mM sodium carbonate, pH 9.6) overnight at 4° C. […] Optical density at 450 nm (OD450) is read within 15 minutes after adding H2SO4 using a Spectramax® ABS Plus microplate reader (Molecular Devices, San Jose, Calif.) and the SoftMax® 7 Pro Software.

golden Syrian hamsters [2] = experiment: IFN-γ ELISPOT of spleen and lymph node cells from immunized hamsters; format: in vivo; settings: listed in rank order
C57BL/6J mice = experiment: Antibody ELISA of sera from immunized mice; format: in vivo; settings: listed in rank order
Description: Briefly, Immulon 4 HBX 96-well plates for ELISA are obtained from Thermo Fisher Scientific (Waltham, Mass.). The plate is coated with 1 μg/well of either a pool of peptides or individual peptides in coating buffer (50 mM sodium carbonate, pH 9.6) overnight at 4° C. After the coating buffer is removed, the plate is blocked with 2% BSA in PBS for 1 hour at room temperature, followed by washing three times with 0.5% Tween in PBS (PBST). Sera are diluted 1:200 in PBS and added to each well and the plate is incubated for 2 hours at room temperature. After incubation, the plate is washed three times with PBST. The secondary antibody is conjugated with HRP, and iss added at a 1:10,000 dilution in PBS. The plate is incubated for 1 hour at room temperature. After washing three times with PBST, TMBE-100 peroxidase substrate (Rockland Immunochemicals, Inc., Limerick, Pa.) is added, followed by 30 minutes incubation at room temperature. Finally, the enzymatic reaction is stopped by adding 2M H2SO4. Optical density at 450 nm (OD450) is read within 15 minutes after adding H2SO4 using a Spectramax® ABS Plus microplate reader (Molecular Devices, San Jose, Calif.) and the SoftMax® 7 Pro Software. […]

rVSV-SARS-CoV-2-S virus = settings: in vivo

Sequence	Hamsters ELISA: top 10 immunogenic peptides, ranked on magnitude of responses (golden Syrian hamsters [1])	Hamsters ELISPOT: top 10 immunogenic peptides, ranked on magnitude of responses (golden Syrian hamsters [2])	Mice ELISA: top 10 immunogenic peptides, ranked on magnitude of responses (C57BL/6J mice)	neutralization activity of peptide-specific antibody (rVSV-SARS-CoV-2-S virus)
PQIQLAVTRMENAVGRD [ORF9b.1*11]	ORF9b.1*11	ORF9b.1*11	ORF9b.1*11	–
SRIGMEVTPSGTWLTYTGAIKLDDKDPNFKDQVILLNKHIDAYK (N-overlap Long)	–	–	–	non-specific background
YFTSDYYQLYSTQLSTDTGV [ORF3a]	ORF3a	ORF3a	ORF3a	–

Reference: patent US12653880B2, “SARS-CoV-2 polypeptides” (priority 2021, dated 2026)
